Measured values from patent publication US20260258020A1, “CRYSTAL FORM OF PIPERAZINE AMIDE DERIVATIVE, PREPARATION METHOD THEREFOR AND USE THEREOF” (ZHEJIANG HISUN PHARMACEUTICAL CO., LTD., priority 2022, published 2026).

How the values were obtained:
[1] = Fluidity test (angle of repose); format: physicochemical; details: for fluidity compared to the amorphous form: conclusion from Table 8
Source text: (§1) The amorphous form of the compound represented by Formula I prepared in Preparation Example, the crystal form A of the compound represented by Formula I prepared in Example 1, the crystal form B of the compound represented by Formula I prepared in Example 9, the crystal form C of the compound represented by Formula I prepared in Example 12, the crystal form D of the compound represented by Formula I prepared in Example 17, and the crystal form E of the compound represented by Formula I prepared in Example 20 were measured for angle of repose, and the specific results are shown in Table 8 below: […]

[2] = Hygroscopicity test; format: physicochemical; details: for hygroscopicity: 75% RH and 25° C. for 24 h; for hygroscopicity compared to the amorphous form: conclusion from Table 9
Source text: The amorphous form of the compound represented by Formula I prepared in Preparation Example, the crystal form A of the compound represented by Formula I prepared in Example 1, the crystal form B of the compound represented by Formula I prepared in Example 9, the crystal form C of the compound represented by Formula I prepared in Example 12, the crystal form D of the compound represented by Formula I prepared in Example 17, and the crystal form E of the compound represented by Formula I prepared in Example 20 were placed in an environment of 75% RH and 25° C. for 24 h and then each was weighed to calculate the hygroscopicity.

[3] = Granularity test; format: physicochemical
Source text: as §1, with “granularity,” for “angle of repose,”, “7” for “8”

[4] = Stability test (purity and XRPD pattern after 30 days storage); format: physicochemical; details: for stability compared to the amorphous form: conclusion from Table 6
Experimental: X-ray powder diffraction instrument and test conditions involved in the present disclosure: the model of the X-ray diffraction instrument was Rigaku MiniFlex-600 Cu target; the operation method included a scanning speed of 10°/min and scanning step width of 0.01°.
High-performance liquid chromatography (HPLC) test conditions involved in the present disclosure: the model of the liquid chromatograph was Agilent 1260; the chromatographic column was Welch XB C-18 250 mm*4.6 mm 3 μm; the detection wavelength was 260 nm; and the column temperature was 40° C.
The amorphous form of compound represented by Formula I prepared in the described preparation examples, the crystal form A of the compound represented by Formula I prepared in Example 1, the crystal form B of the compound represented by Formula I prepared in Example 9, the crystal form C of the compound represented by Formula I prepared in Example 12, the crystal form D of the compound represented by Formula I prepared in Example 17, and the crystal form E of the compound represented by Formula I prepared in Example 20 were placed under various conditions: 75% RH, 92.5% RH, 40° C., 60° C., and illumination for 30 days, the X-ray powder diffraction pattern and purity of each crystal form were determined, and the specific results are shown in Table 6.

[5] = molecular target: RET kinase (Homo sapiens, UniProt P07949); details: stated for WO2020/207419A1; cited from earlier work
Chain of RET kinase (P07949 29-1114): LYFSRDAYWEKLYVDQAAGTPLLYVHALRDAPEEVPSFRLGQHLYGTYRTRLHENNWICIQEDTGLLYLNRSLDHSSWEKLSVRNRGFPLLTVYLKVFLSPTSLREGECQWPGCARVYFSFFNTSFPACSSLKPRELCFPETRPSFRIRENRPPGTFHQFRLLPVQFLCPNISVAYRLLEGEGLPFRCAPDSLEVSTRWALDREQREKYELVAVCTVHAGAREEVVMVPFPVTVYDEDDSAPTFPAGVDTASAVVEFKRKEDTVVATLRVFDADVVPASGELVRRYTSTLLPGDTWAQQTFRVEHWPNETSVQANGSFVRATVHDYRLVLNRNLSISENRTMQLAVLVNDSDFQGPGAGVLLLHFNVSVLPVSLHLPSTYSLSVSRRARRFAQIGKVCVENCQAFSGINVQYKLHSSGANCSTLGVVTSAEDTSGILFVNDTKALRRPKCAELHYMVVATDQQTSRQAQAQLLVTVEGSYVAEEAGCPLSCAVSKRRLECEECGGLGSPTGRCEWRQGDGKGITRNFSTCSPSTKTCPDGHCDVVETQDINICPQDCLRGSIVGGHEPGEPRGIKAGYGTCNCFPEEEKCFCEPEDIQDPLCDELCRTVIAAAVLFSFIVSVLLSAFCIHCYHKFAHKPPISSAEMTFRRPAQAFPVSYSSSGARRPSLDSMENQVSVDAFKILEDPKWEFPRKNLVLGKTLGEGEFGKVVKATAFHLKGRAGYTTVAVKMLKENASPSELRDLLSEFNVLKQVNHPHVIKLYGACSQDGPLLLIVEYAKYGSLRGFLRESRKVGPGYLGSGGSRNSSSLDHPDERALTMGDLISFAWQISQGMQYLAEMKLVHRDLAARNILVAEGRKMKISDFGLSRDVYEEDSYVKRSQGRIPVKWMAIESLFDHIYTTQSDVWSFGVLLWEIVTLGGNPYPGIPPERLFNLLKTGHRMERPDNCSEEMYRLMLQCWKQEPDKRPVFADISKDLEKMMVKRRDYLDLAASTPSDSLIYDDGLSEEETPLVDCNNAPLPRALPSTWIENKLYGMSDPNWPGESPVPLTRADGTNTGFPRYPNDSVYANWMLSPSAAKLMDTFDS

Structure (SMILES): Cc1cc(Nc2cc(C)[nH]n2)nc(N2CC3CCC(C2)N3C(=O)c2ccc(-n3cc(F)cn3)nn2)n1 [amorphous form, (6-(4-fluoro-1H-pyrazol-1-yl)pyridazin-3-yl)(3-(4-methyl-6-((5-methyl-1H-pyrazol-3-yl)amino)pyrimidin-2-yl) 3,8-diazabicyclo[3.2.1]octane-8-yl) methanone, reference compound]
- angle of repose ([1]; measurement 1): 43.8°
- angle of repose ([1]; measurement 2): 44.3°
- angle of repose ([1]; measurement 3): 43.4°
- hygroscopicity [2]: 0.45%
- D50 (granularity) [3]: 3.52 μm
- D90 (granularity) [3]: 18.45 μm
- granularity compared to crystal forms A, B, C, D and E ([3]; conclusion from Table 7): significantly smaller
- D50 of amorphous form relative to the crystal form D50 ([3]; versus crystal forms A-E): not more than 12%
- D90 of amorphous form relative to the crystal form D90 ([3]; versus crystal forms A-E): not more than 25%
- purity ([4]; day 0): 96.77
- X-ray powder diffraction pattern after storage ([4]; day 30 at 40° C.): changes)
- purity ([4]; day 30 at 40° C.): 96.17 (its
- X-ray powder diffraction pattern after storage ([4]; day 30 at 60° C.): changes)
- purity ([4]; day 30 at 60° C.): 95.98 (its
- purity ([4]; day 30 under 75% RH): 95.94
- purity ([4]; day 30 under 92.5% RH): 95.23
- purity ([4]; day 30 under illumination): 94.37

Structure (SMILES): Cc1cc(Nc2cc(C)[nH]n2)nc(N2CC3CCC(C2)N3C(=O)c2ccc(-n3cc(F)cn3)nn2)n1 [compound represented by formula I, (6-(4-fluoro-1H-pyrazol-1-yl)pyridazin-3-yl)(3-(4-methyl-6-((5-methyl-1H-pyrazol-3-yl)amino)pyrimidin-2-yl)-3,8-diazabicyclo[3.2.1]octan-8-yl) methanone]
- effect of inhibiting RET kinase [5]: good effect of inhibiting RET kinase

Structure (SMILES): Cc1cc(Nc2cc(C)[nH]n2)nc(N2CC3CCC(C2)N3C(=O)c2ccc(-n3cc(F)cn3)nn2)n1 [crystal form A, (6-(4-fluoro-1H-pyrazol-1-yl)pyridazin-3-yl)(3-(4-methyl-6-((5-methyl-1H-pyrazol-3-yl)amino)pyrimidin-2-yl)-3,8-diazabicyclo[3.2.1]octan-8-yl) methanone]
- fluidity compared to the amorphous form [1]: significantly superior
- angle of repose ([1]; measurement 1): 32.5°
- angle of repose ([1]; measurement 2): 31.9°
- angle of repose ([1]; measurement 3): 32.2°
- hygroscopicity [2]: 0.02%
- hygroscopicity compared to the amorphous form [2]: significantly better
- D50 (granularity) [3]: 38.62 μm
- D90 (granularity) [3]: 95.11 μm
- stability compared to the amorphous form [4]: better stability
- purity ([4]; day 0): 99.85
- purity ([4]; day 30 at 40° C.): 99.80
- purity ([4]; day 30 at 60° C.): 99.77
- purity ([4]; day 30 under 75% RH): 99.67
- purity ([4]; day 30 under 92.5% RH): 99.48
- purity ([4]; day 30 under illumination): 98.88

Structure (SMILES): Cc1cc(Nc2cc(C)[nH]n2)nc(N2CC3CCC(C2)N3C(=O)c2ccc(-n3cc(F)cn3)nn2)n1 [crystal form B, (6-(4-fluoro-1H-pyrazol-1-yl)pyridazin-3-yl)(3-(4-methyl-6-((5-methyl-1H-pyrazol-3-yl)amino)pyrimidin-2-yl)-3,8-diazabicyclo[3.2.1]octan-8-yl) methanone]
- fluidity compared to the amorphous form [1]: significantly superior
- angle of repose ([1]; measurement 1): 33.4°
- angle of repose ([1]; measurement 2): 34.1°
- angle of repose ([1]; measurement 3): 34.2°
- hygroscopicity [2]: 0.05%
- hygroscopicity compared to the amorphous form [2]: significantly better
- D50 (granularity) [3]: 32.53 μm
- D90 (granularity) [3]: 86.77 μm
- stability compared to the amorphous form [4]: better stability
- purity ([4]; day 0): 99.80
- purity ([4]; day 30 at 40° C.): 99.68
- purity ([4]; day 30 at 60° C.): 99.62
- purity ([4]; day 30 under 75% RH): 99.52
- purity ([4]; day 30 under 92.5% RH): 99.23
- purity ([4]; day 30 under illumination): 98.56

Structure (SMILES): Cc1cc(Nc2cc(C)[nH]n2)nc(N2CC3CCC(C2)N3C(=O)c2ccc(-n3cc(F)cn3)nn2)n1 [crystal form C, (6-(4-fluoro-1H-pyrazol-1-yl)pyridazin-3-yl)(3-(4-methyl-6-((5-methyl-1H-pyrazol-3-yl)amino)pyrimidin-2-yl)-3,8-diazabicyclo[3.2.1]octan-8-yl) methanone]
- fluidity compared to the amorphous form [1]: significantly superior
- angle of repose ([1]; measurement 1): 33.8°
- angle of repose ([1]; measurement 2): 33.9°
- angle of repose ([1]; measurement 3): 33.2.°
- hygroscopicity [2]: 0.06%
- hygroscopicity compared to the amorphous form [2]: significantly better
- D50 (granularity) [3]: 31.58 μm
- D90 (granularity) [3]: 79.47 μm
- stability compared to the amorphous form [4]: better stability
- purity ([4]; day 0): 99.75
- purity ([4]; day 30 at 40° C.): 99.51
- purity ([4]; day 30 at 60° C.): 99.38
- purity ([4]; day 30 under 75% RH): 99.45
- purity ([4]; day 30 under 92.5% RH): 99.08
- purity ([4]; day 30 under illumination): 98.22

Structure (SMILES): Cc1cc(Nc2cc(C)[nH]n2)nc(N2CC3CCC(C2)N3C(=O)c2ccc(-n3cc(F)cn3)nn2)n1 [crystal form D, (6-(4-fluoro-1H-pyrazol-1-yl)pyridazin-3-yl)(3-(4-methyl-6-((5-methyl-1H-pyrazol-3-yl)amino)pyrimidin-2-yl)-3,8-diazabicyclo[3.2.1]octan-8-yl) methanone]
- fluidity compared to the amorphous form [1]: significantly superior
- angle of repose ([1]; measurement 1): 33.0°
- angle of repose ([1]; measurement 2): 33.8°
- angle of repose ([1]; measurement 3): 33.3°
- hygroscopicity [2]: 0.08%
- hygroscopicity compared to the amorphous form [2]: significantly better
- D50 (granularity) [3]: 33.64 μm
- D90 (granularity) [3]: 83.56 μm
- stability compared to the amorphous form [4]: better stability
- purity ([4]; day 0): 99.60
- purity ([4]; day 30 at 40° C.): 99.42
- purity ([4]; day 30 at 60° C.): 99.33
- purity ([4]; day 30 under 75% RH): 99.35
- purity ([4]; day 30 under 92.5% RH): 99.01
- purity ([4]; day 30 under illumination): 98.23

Structure (SMILES): Cc1cc(Nc2cc(C)[nH]n2)nc(N2CC3CCC(C2)N3C(=O)c2ccc(-n3cc(F)cn3)nn2)n1 [crystal form E, (6-(4-fluoro-1H-pyrazol-1-yl)pyridazin-3-yl)(3-(4-methyl-6-((5-methyl-1H-pyrazol-3-yl)amino)pyrimidin-2-yl)-3,8-diazabicyclo[3.2.1]octan-8-yl) methanone]
- fluidity compared to the amorphous form [1]: significantly superior
- angle of repose ([1]; measurement 1): 34.2°
- angle of repose ([1]; measurement 2): 35.1°
- angle of repose ([1]; measurement 3): 34.8°
- hygroscopicity [2]: 0.05%
- hygroscopicity compared to the amorphous form [2]: significantly better
- D50 (granularity) [3]: 30.36 μm
- D90 (granularity) [3]: 75.89 μm
- stability compared to the amorphous form [4]: better stability
- purity ([4]; day 0): 99.76
- purity ([4]; day 30 at 40° C.): 99.70
- purity ([4]; day 30 at 60° C.): 99.65
- purity ([4]; day 30 under 75% RH): 99.60
- purity ([4]; day 30 under 92.5% RH): 99.50
- purity ([4]; day 30 under illumination): 98.65
